Assay results: patent US12194039B2, “Methods of treating heart failure by administering omecamtiv mecarbil” (Cytokinetics, Inc., priority 2020, dated 2025)
Entries after “also recorded” stand apart in the source; their conditions may differ. Where two headings read alike, the source gives them in different places.

Experiments:
[1] = tested on: patients with or without more advanced HF; assay type: in vivo, human; conditions: for KCCQ total symptom score (TSS), increase: inpatient; for KCCQ total symptom score (TSS), increase / KCCQ total symptom score (TSS), decrease: vs placebo; for KCCQ total symptom score (TSS), decrease: outpatient
Description: Patients having more advanced heart failure (HF): In some aspects, provided is a method of treating a patient having more advanced HF by administering omecamtiv mecarbil as described herein. More advanced HF, also referred to as severe HF, refractory HF, or Stage D HF, can be determined based on a number of criteria recognized in the medical field. In some embodiments, more advanced HF refers to the published criteria from the 2018 ESC-HFA position statement (European journal of heart failure. 2018; 20:1505-1535). For the ESC-HFA criteria, patients were required to have all of 1) NYHA class III-IV symptoms, 2) a left ventricular ejection fraction 30%, 3) 2 or more hospitalizations for HF within the prior 12 months, and 4) evidence of severe functional impairment as defined by cardiopulmonary exercise testing or 6-minute walk test. In some embodiments, the hospitalization criteria is modified to one HF hospitalization within the prior 6 months In some embodiments, more advanced HF refers to patients having all of 1) NYHA class III-IV symptoms, 2) a left ventricular ejection fraction 30%, and 3) 1 or more hospitalizations for HF within the prior 6 months.
Baseline characteristics for patients classified as more advanced HF compared to those without were evaluated using appropriate summary statistics. Outcomes for patients with or without more advanced HF were compared using Cox proportional hazards models and Kaplan-Meier curves. […] Absolute event rates were described using rate per 100 patient-years. As a sensitivity analysis, the event rates and treatment effect of omecamtiv mecarbil for patients was assessed by specific advanced HF criteria met, as well as the total number of criteria met. For quality-of-life data as assessed by the Kansas City Cardiomyopathy Questionnaire Total Symptom Score (KCCQ TSS), linear regression adjusted for baseline scores was used to compare treatment effects of omecamtiv mecarbil compared to placebo. Safety and tolerability data for patients with advanced HF vs. those without were summarized using descriptive statistics. P value ≤0.05 was considered statistically significant for all analyses.

[2] = Effect of food on OM systemic exposure; assay type: in vivo, human; conditions: healthy subjects; result in words
CYP2D6 = CYP2D6 (Homo sapiens, UniProt P10635); assay: Metabolism of OM by CYP enzymes; assay type: in vitro ADME; conditions: result in words; listed as OM
Description: (§1) Clearance of OM after oral administration was primarily through metabolism in the liver. […] Following oral administration of radiolabeled OM to healthy subjects, approximately 49% of the dose was excreted in urine (primarily as metabolites with 8% of parent compound recovered) and 38% in feces (primarily as unchanged drug).

CYP3A4 = CYP3A4 (Homo sapiens, UniProt P08684); assay: Metabolism of OM by CYP enzymes; assay type: in vitro ADME; conditions: result in words
Description: as §1

BCRP = target: T1, BCRP (Homo sapiens, UniProt Q9UNQ0); assay: In vitro inhibition by OM; assay type: in vitro ADME; conditions: result in words
T1 sequence (Q9UNQ0 1-655): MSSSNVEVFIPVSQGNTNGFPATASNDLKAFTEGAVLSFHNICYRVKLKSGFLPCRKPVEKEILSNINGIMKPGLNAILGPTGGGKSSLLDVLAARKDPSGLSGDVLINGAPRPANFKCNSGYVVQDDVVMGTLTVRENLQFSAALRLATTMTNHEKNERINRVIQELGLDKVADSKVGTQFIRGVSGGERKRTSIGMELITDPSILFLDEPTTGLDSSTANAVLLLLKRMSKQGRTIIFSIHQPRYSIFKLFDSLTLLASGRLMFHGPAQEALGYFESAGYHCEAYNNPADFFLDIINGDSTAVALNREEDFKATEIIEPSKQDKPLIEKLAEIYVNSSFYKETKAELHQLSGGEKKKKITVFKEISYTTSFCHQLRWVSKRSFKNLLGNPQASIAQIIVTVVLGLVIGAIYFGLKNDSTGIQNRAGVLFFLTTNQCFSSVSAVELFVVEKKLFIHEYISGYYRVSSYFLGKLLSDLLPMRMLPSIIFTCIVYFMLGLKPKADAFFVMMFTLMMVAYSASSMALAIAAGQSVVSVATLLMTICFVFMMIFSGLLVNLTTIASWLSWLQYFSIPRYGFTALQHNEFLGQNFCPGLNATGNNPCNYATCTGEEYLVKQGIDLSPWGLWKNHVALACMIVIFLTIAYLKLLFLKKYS

[3] = Advanced HF, week 0 to 24, OM vs placebo
[4] = Less Advanced Heart Failure, OM group
[5] = Less Advanced Heart Failure, OM vs placebo
[6] = More Advanced Heart Failure, OM group
[7] = More Advanced Heart Failure, OM vs placebo

Sequence of CYP3A4 (P08684 whole entry): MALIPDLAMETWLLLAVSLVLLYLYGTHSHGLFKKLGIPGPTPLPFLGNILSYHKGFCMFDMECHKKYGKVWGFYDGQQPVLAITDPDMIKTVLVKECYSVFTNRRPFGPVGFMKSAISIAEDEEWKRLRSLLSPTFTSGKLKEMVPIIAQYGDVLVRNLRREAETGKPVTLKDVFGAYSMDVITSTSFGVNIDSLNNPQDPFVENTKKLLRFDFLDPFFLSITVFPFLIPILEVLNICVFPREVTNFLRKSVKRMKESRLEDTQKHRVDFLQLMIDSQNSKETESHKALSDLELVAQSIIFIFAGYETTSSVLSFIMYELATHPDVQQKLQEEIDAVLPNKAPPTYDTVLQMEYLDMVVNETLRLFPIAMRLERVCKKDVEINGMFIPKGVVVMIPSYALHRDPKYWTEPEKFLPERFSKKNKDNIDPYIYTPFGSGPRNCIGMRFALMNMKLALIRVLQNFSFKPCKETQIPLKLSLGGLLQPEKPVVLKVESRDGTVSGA
Sequence of CYP2D6 (P10635 whole entry): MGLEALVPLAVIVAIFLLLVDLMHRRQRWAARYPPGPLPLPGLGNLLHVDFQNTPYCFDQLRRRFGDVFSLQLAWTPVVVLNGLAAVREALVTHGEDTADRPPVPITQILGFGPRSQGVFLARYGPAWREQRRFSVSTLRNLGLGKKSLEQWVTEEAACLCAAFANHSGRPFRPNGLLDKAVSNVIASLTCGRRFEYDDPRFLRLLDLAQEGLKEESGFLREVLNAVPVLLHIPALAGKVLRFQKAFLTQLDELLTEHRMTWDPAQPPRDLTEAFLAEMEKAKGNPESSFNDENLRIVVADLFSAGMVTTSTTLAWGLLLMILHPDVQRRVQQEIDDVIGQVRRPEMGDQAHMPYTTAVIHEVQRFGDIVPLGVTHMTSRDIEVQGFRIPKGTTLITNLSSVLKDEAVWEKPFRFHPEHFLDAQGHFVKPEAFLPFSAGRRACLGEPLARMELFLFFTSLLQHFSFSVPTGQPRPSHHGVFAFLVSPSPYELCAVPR

## COC(=O)N1CCN(Cc2cccc(NC(=O)Nc3ccc(C)nc3)c2F)CC1 [omecamtiv mecarbil]
[1]; Advanced HF, OM group, week 24
  Creatinine: 1.37 ± 0.55 mg/dL
  NT-proBNP: 1837 [856, pg/ml
  Systolic BP: 116.7 ± 17.3 mm Hg
[1]; [3]
  NT-proBNP (Ratio): 0.86
  Troponin I (Ratio): 1.30
[1]; [4]
  All-cause Death (%): (23%)
  All-cause Death Rate: 12.4 per 100 patient years
  All-cause Death n/N: 692/3014
  HF Hosp as 1st Primary Event (%): (24%)
  HF Hosp as 1st Primary Event Rate: 15.0 per 100 patient years
  HF Hosp as 1st Primary Event n/N: 722/3014
  Heart Failure Hospitalization (%): (25%)
  Heart Failure Hospitalization Rate: 15.4 per 100 patient years
  Heart Failure Hospitalization n/N: 746/3014
  Primary Outcome (%): (34%)
  Primary Outcome Rate: 21.1 per 100 patient years
  Primary Outcome n/N: 1013/3014
  Urgent Outpatient Visit as 1st Primary Event (%): (2%)
  Urgent Outpatient Visit as 1st Primary Event Rate: 1.1 per 100 patient years
  Urgent Outpatient Visit as 1st Primary Event n/N: 52/3014
[1]; [5]
  All-cause Death ARR: 0.6 per 100 patient years
  All-cause Death HR (95% CI): 1.05 (0.94, 1.17);
  Heart Failure Hospitalization ARR: −0.1 per 100 patient years
  Heart Failure Hospitalization HR (95% CI): 1.01 (0.91, 1.12);
  Primary Outcome ARR: 0.2 per 100 patient years
  Primary Outcome HR (95% CI): 0.99 (0.91, 1.08);
[1]; [6]
  All-cause Death (%): (34%)
  All-cause Death Rate: 20.1 per 100 patient years
  All-cause Death n/N: 365/1081
  HF Hosp as 1st Primary Event (%): (35%)
  HF Hosp as 1st Primary Event Rate: 25.9 per 100 patient years
  HF Hosp as 1st Primary Event n/N: 385/1106
  Heart Failure Hospitalization (%): (36%)
  Heart Failure Hospitalization Rate: 26.2 per 100 patient years
  Heart Failure Hospitalization n/N: 385/1081
  Primary Endpoint (%): (46%)
  Primary Endpoint Rate: 34.3 per 100 patient years
  Primary Endpoint n/N: 510/1106
  Urgent Outpatient Visit as 1st Primary Event (%): (2%)
  Urgent Outpatient Visit as 1st Primary Event Rate: 1.2 per 100 patient years
  Urgent Outpatient Visit as 1st Primary Event n/N: 18/1106
[1]; [7]
  All-cause Death ARR: 1.5 per 100 patient years
  All-cause Death HR (95% CI): 0.92 (0.80, 1.06);
  Heart Failure Hospitalization ARR: 5.2 per 100 patient years
  Heart Failure Hospitalization HR (95% CI): 0.84 (0.73, 0.96);
  Primary Endpoint ARR: 8.3 per 100 patient years
  Primary Endpoint HR (95% CI): 0.80 (0.71, 0.90);
[1]; Non-Advanced HF, OM group, week 24
  NT-proBNP: 1274 [531, pg/ml
[1]; Non-Advanced HF, week 0 to 24, OM vs placebo
  NT-proBNP (Ratio): 0.91
[1]; advanced HF
  KCCQ total symptom score (TSS), increase: 1.1
  KCCQ total symptom score (TSS), decrease: 1.7
[1]; human, in vivo
  Myocardial infarctions: 3.8%
  Serious adverse events related to ventricular tachyarrhythmias: 7.9%
  Strokes: 1.6%
  Treatment emergent serious adverse events: 67%
[1]; in vivo
  Circulating cardiac troponin: small increase
  Creatinine: 1.29 ± 0.49 mg/dL
  Heart rate lowering, difference in change vs placebo: 1.9 beats/minute
  Systolic BP: 118.4 ± 16.8 mm Hg
  Troponin I (Ratio): 1.24
[1]; more advanced HF population, result in words
  NT-proBNP: significant decrease
[1]; non-advanced HF
  KCCQ total symptom score (TSS), increase: 3.3
  KCCQ total symptom score (TSS), decrease: 0.2
[1]; patients with less advanced HF
  Cardiovascular mortality, hazard ratio: 1.10
[1]; patients with more advanced HF
  Absolute risk reduction, primary endpoint: 8.3 events/100 patient-years
  Cardiovascular mortality, hazard ratio: 0.88
  Primary endpoint, hazard ratio: 0.80
  Relative risk reduction, primary endpoint: 20%
[1]; patients without more advanced HF
  Primary endpoint, hazard ratio: 0.99
[1]; primary endpoint, patients with more advanced HF
  NNT: 12
[2]
  Effect of a high-fat, high-calorie meal on systemic exposure: no clinically significant effect
CYP2D6
  Metabolism by CYP2D6: extensively metabolized; also recorded: metabolized in vitro
CYP3A4
  Metabolism by CYP3A4: substrate
CYP3A4; listed as OM
  Metabolism by CYP3A4: extensively metabolized; also recorded: metabolized in vitro
BCRP
  Inhibition of BCRP: inhibitor
